# Experimental data published in ChEMBL document CHEMBL4316608, “Artemisinin-indole and artemisinin-imidazole hybrids: Synthesis, cytotoxic evaluation and reversal effects on multidrug resistance in MCF-7/ADR cells” (Bioorg Med Chem Lett, 2019).
# Structures can show the parent of a compound that is named as a salt.
# Assays:
# MDA-MB-231 = experiment: Antiproliferative activity against human MDA-MB-231 cells measured after 48 hrs by MTT assay; assay type: functional, cell-based; conditions: MDA-MB-231, 48 h
# NCI/ADR-RES = experiment: Potentiation of adriamycin-induced antiproliferative activity against human MCF7/ADR cells assessed as fold reduction in adriamycin IC50 at 5 uM measured after 48 hrs by MTT assay; assay type: functional
# L02 = experiment: Cytotoxicity against human L02 cells measured after 48 hrs by MTT assay; assay type: cell-based; conditions: L02, 48 h
# HepG2 = experiment: Antiproliferative activity against human HepG2 cells measured after 48 hrs by MTT assay; assay type: functional, cell-based; conditions: HepG2, 48 h
# MCF7 [1] = experiment: Antiproliferative activity against human MCF7 cells measured after 48 hrs by MTT assay; assay type: functional, cell-based; conditions: MCF7, 48 h
# A549 = experiment: Antiproliferative activity against human A549 cells measured after 48 hrs by MTT assay; assay type: functional, cell-based; conditions: A549, 48 h
# [2] = Toxicity in human MCF7 cells assessed as inhibition of cell proliferation at 5 uM measured after 48 hrs by MTT assay; assay type: cell-based
# MCF7 [3] = experiment: Cell cycle arrest in human MCF7 cells assessed as accumulation at G2 phase at 5 uM measured after 48 hrs by propidium iodide staining based flow cytometry (reference value: 23.25%); assay type: functional
# MCF7 [4] = experiment: Cell cycle arrest in human MCF7 cells assessed as accumulation at S phase at 2.5 uM measured after 48 hrs by propidium iodide staining based flow cytometry (reference value: 24.31%); assay type: functional
# MCF7 [5] = experiment: Cell cycle arrest in human MCF7 cells assessed as accumulation at G2 phase at 10 uM measured after 48 hrs by propidium iodide staining based flow cytometry (reference value: 23.25%); assay type: functional
# MCF7 [6] = experiment: Cell cycle arrest in human MCF7 cells assessed as accumulation at G2 phase at 2.5 uM measured after 48 hrs by propidium iodide staining based flow cytometry (reference value: 23.25%); assay type: functional
# MCF7 [7] = experiment: Cell cycle arrest in human MCF7 cells assessed as accumulation at G1 phase at 10 uM measured after 48 hrs by propidium iodide staining based flow cytometry (reference value: 52.44%); assay type: functional
# MCF7 [8] = experiment: Cell cycle arrest in human MCF7 cells assessed as accumulation at S phase at 5 uM measured after 48 hrs by propidium iodide staining based flow cytometry (reference value: 24.31%); assay type: functional
# MCF7 [9] = experiment: Cell cycle arrest in human MCF7 cells assessed as accumulation at G1 phase at 2.5 uM measured after 48 hrs by propidium iodide staining based flow cytometry (reference value: 52.44%); assay type: functional
# MCF7 [10] = experiment: Cell cycle arrest in human MCF7 cells assessed as accumulation at G1 phase at 5 uM measured after 48 hrs by propidium iodide staining based flow cytometry (reference value: 52.44%); assay type: functional
# MCF7 [11] = experiment: Cell cycle arrest in human MCF7 cells assessed as accumulation at S phase at 10 uM measured after 48 hrs by propidium iodide staining based flow cytometry (reference value: 24.31%); assay type: functional
# MCF7 [12] = experiment: Potency index, ratio of artemisinin IC50 to test compound IC50 for human MCF7 cells; assay type: functional
# ADR5000 cell line = experiment: Cytotoxicity against human CEM/ADR5000 cells by XTT assay; assay type: functional, cell-based
# CCRF-CEM = experiment: Cytotoxicity against human CCRF-CEM cells by XTT assay; assay type: functional, cell-based
SMILES,IC50 (MDA-MB-231) [µM],fold change (FC) (NCI/ADR-RES),IC50 (L02) [µM],IC50 (HepG2) [µM],IC50 (MCF7 [1]) [µM],IC50 (A549) [µM],"inhibition at 48 h, 5 µM [2] [%]",other results
C[C@H]1[C@H](OC(=O)CCC(=O)OCCCCn2cnc([N+](=O)[O-])c2)O[C@@H]2O[C@@]3(C)CC[C@H]4[C@H](C)CC[C@@H]1[C@@]24OO3,57,26.06,77.5,30.2,15.4,25.8,20.2,–
C[C@@H]1CC[C@H]2[C@@H](C)C(OC(=O)c3c[nH]c4ccc(Cl)cc34)O[C@@H]3O[C@@]4(C)CC[C@@H]1[C@]32OO4 (stereo not given in full),> 100,117,31,10.8,5.25,6.17,32.1,Activity (MCF7 [3]): 34.35%; Activity (MCF7 [4]): 24.24%; Activity (MCF7 [5]): 38.97%; Activity (MCF7 [6]): 27.4%; Activity (MCF7 [7]): 39.61%; Activity (MCF7 [8]): 21.89%; Activity (MCF7 [9]): 48.36%; Activity (MCF7 [10]): 43.76%; Activity (MCF7 [11]): 21.41%; Ratio IC50 (MCF7 [12]): 10
C[C@H]1[C@H](OC(=O)CCC(=O)O)O[C@@H]2O[C@@]3(C)CC[C@H]4[C@H](C)CC[C@@H]1[C@@]24OO3 [ARTESUNATE],75.7,–,72.2,39.9,38.7,50.7,–,–
C[C@H]1[C@H](OC(=O)CCC(=O)OCCn2ccnc2[N+](=O)[O-])O[C@@H]2O[C@@]3(C)CC[C@H]4[C@H](C)CC[C@@H]1[C@@]24OO3,39.4,27.09,50.2,23.7,16.4,14,13.5,–
C[C@H]1[C@H](OC(=O)CCC(=O)OCCCCn2cc(C#N)nc2Cl)O[C@@H]2O[C@@]3(C)CC[C@H]4[C@H](C)CC[C@@H]1[C@@]24OO3,> 100,11.17,52.3,40.2,13.6,23.3,16.6,–
C[C@H]1[C@H](OC(=O)CCC(=O)OCCCCn2ccnc2[N+](=O)[O-])O[C@@H]2O[C@@]3(C)CC[C@H]4[C@H](C)CC[C@@H]1[C@@]24OO3,85.2,14.71,45.7,21.2,9.78,16.5,19.8,–
COc1cccc2c1C(=O)c1c(O)c3c(c(O)c1C2=O)C[C@@](O)(C(=O)CO)C[C@@H]3O[C@H]1C[C@H](N)[C@H](O)[C@H](C)O1 [DOXORUBICIN HYDROCHLORIDE],–,–,0.79,–,–,1.13,–,–
C[C@H]1[C@H](OC(=O)CCC(=O)OCCn2cnc(C#N)c2C#N)O[C@@H]2O[C@@]3(C)CC[C@H]4[C@H](C)CC[C@@H]1[C@@]24OO3,> 100,5.41,49.1,25.6,10.8,12.4,13.7,–
C[C@H]1[C@H](OC(=O)CCC(=O)OCCCn2ccnc2[N+](=O)[O-])O[C@@H]2O[C@@]3(C)CC[C@H]4[C@H](C)CC[C@@H]1[C@@]24OO3,> 100,16.69,46.4,39.3,12.9,20.9,22.3,–
C[C@@H]1CC[C@@H]2[C@]34OO[C@](C)(CC[C@@H]13)O[C@H]4OC[C@]2(C)O,–,–,–,–,–,–,–,IC50 (ADR5000 cell line): 90 µM; IC50 (CCRF-CEM): 156 µM
COc1ccc(CCN(C)CCCC(C#N)(c2ccc(OC)c(OC)c2)C(C)C)cc1OC (stereo not given),–,39.62,–,–,–,–,–,–
COc1ccc2[nH]cc(C(=O)OC3O[C@@H]4O[C@@]5(C)CC[C@H]6[C@H](C)CC[C@@H]([C@H]3C)[C@@]46OO5)c2c1 (stereo not given in full),70.4,71.89,36.4,27.7,14.5,13.4,19.8,–
C[C@H]1[C@H](OC(=O)CCC(=O)OCCCn2cnc([N+](=O)[O-])c2)O[C@@H]2O[C@@]3(C)CC[C@H]4[C@H](C)CC[C@@H]1[C@@]24OO3,80.9,15.72,34.3,33.3,12.7,20,22.3,–
C[C@H]1[C@H](OC(=O)CCC(=O)OCCCCn2cnc(C#N)c2C#N)O[C@@H]2O[C@@]3(C)CC[C@H]4[C@H](C)CC[C@@H]1[C@@]24OO3,50.8,4.1,42.9,32.3,15.2,17.9,11.2,–
C[C@H]1[C@@H](O)O[C@@H]2O[C@@]3(C)CC[C@H]4[C@H](C)CC[C@@H]1[C@@]24OO3 [ARTENIMOL],58.7,–,40.2,31.7,34.3,45.3,–,IC50 (ADR5000 cell line): 1.84 µM; IC50 (CCRF-CEM): 0.87 µM
C[C@H]1[C@H](OC(=O)CCC(=O)OCCCCn2cnc(Br)c2)O[C@@H]2O[C@@]3(C)CC[C@H]4[C@H](C)CC[C@@H]1[C@@]24OO3,> 100,5.56,41.3,35.9,11.6,18.9,8.95,–
C[C@H]1[C@H](OC(=O)CCC(=O)OCCCn2cnc(Br)c2)O[C@@H]2O[C@@]3(C)CC[C@H]4[C@H](C)CC[C@@H]1[C@@]24OO3,80.9,5.6,> 100,41.6,12.4,26,23.2,–
C[C@H]1[C@H](OC(=O)CCC(=O)OCCn2cc(C#N)nc2Cl)O[C@@H]2O[C@@]3(C)CC[C@H]4[C@H](C)CC[C@@H]1[C@@]24OO3,66.4,9.24,61.2,44.3,17.5,20.7,21.3,–
C[C@H]1[C@H](OC(=O)CCC(=O)OCCn2cnc(Br)c2)O[C@@H]2O[C@@]3(C)CC[C@H]4[C@H](C)CC[C@@H]1[C@@]24OO3,> 100,6.37,66.9,31.9,13.1,24.7,12.4,–
C[C@H]1[C@H](OC(=O)CCC(=O)OCCCn2cc(C#N)nc2Cl)O[C@@H]2O[C@@]3(C)CC[C@H]4[C@H](C)CC[C@@H]1[C@@]24OO3,> 100,8.51,72.8,> 50,13.8,19.6,12.8,–
C[C@@H]1CC[C@H]2[C@@H](C)C(=O)O[C@@H]3O[C@@]4(C)CC[C@@H]1[C@]32OO4 [ARTEMISININ],> 100,–,> 100,> 50,> 50,> 50,–,–
C[C@@H]1CC[C@H]2[C@@H](C)C(OC(=O)/C=C/c3cc4ccccc4[nH]3)O[C@@H]3O[C@@]4(C)CC[C@@H]1[C@]32OO4 (stereo not given in full),> 100,61.05,> 100,> 50,> 50,> 50,5.38,–
C[C@H]1[C@H](OC(=O)CCC(=O)OCCn2cnc([N+](=O)[O-])c2)O[C@@H]2O[C@@]3(C)CC[C@H]4[C@H](C)CC[C@@H]1[C@@]24OO3,82.3,43.48,56.2,34.9,14,12.7,7.78,–
C[C@@H]1CC[C@H]2[C@@H](C)C(OC(=O)c3c[nH]c4ccccc34)O[C@@H]3O[C@@]4(C)CC[C@@H]1[C@]32OO4 (stereo not given in full),58.9,95.85,42.6,15.2,6.78,12.9,18.9,–
C[C@H]1[C@H](OC(=O)CCC(=O)OCCCn2cnc(C#N)c2C#N)O[C@@H]2O[C@@]3(C)CC[C@H]4[C@H](C)CC[C@@H]1[C@@]24OO3,93.2,4.37,66.2,> 50,16.2,26.7,15,–
